Test: method code SF, from DOI: 10.1080/10826079508010421
Conditions: pH 11.0

Row | Compound | logD
1 | NC1=NCC(COc2ccc([N+](=O)[O-])cc2)O1 (stereo not given) | 1.17
2 | NC1=NCC(COc2ccc(N3CCOCC3)cc2)O1 (stereo not given) | 0.6
3 | Cc1ccccc1OCC1CN=C(N)O1 (stereo not given) | 1.69
4 | NC1=NCC(COc2ccccc2Cl)O1 (stereo not given) | 1.77
5 | NC1=NCC(COc2ccccc2)O1 (stereo not given) | 1.27

The remaining lines, values ahead:

Row | logD | Compound
6 | 1.24 | CCOc1ccccc1OCC1CN=C(N)O1 (stereo not given)
7 | 0.85 | COc1ccccc1OCC1CN=C(N)O1 (stereo not given)
8 | 1.26 | COc1ccc(OCC2CN=C(N)O2)cc1 (stereo not given)
9 | 1.79 | Cc1ccc(OCC2CN=C(N)O2)cc1 (stereo not given)
10 | 2 | NC1=NCC(COc2ccc(Cl)cc2)O1 (stereo not given)

From the SangsterLogP compilation
